Patent US8802597B2, “Herbicidal pyrimidines” (E I du Pont de Nemours and Company, priority 2003, dated 2014)
Where two headings read alike, the source gives them in different places.

How the values were obtained:
Format in all cases: in vivo
corn (Zea mays) = assay: Test B pre/postemergence; conditions: Zea mays
Method in brief: (§1)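 Compounds in non-phytotoxic solvent with surfactant applied preemergence to planted seeds or postemergence to plants 2 to 18 cm tall (1- to 4-leaf stage). Greenhouse 13 to 15 days, then visual rating against controls on a 0 to 100 scale (100 = complete control).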

[1] = test system: pigweed (Amaranthus retroflexus); assay: Test B pre/postemergence; conditions: Amaranthus retroflexus, post-emergence, Postemergence, scale 0 to 100 (0 no effect, 100 complete control), read-out: Pigweed plant response rating
Method in brief: as §1

[2] = test system: lambsquarters (Chenopodium album); assay: Test B pre/postemergence; conditions: Chenopodium album, post-emergence, Postemergence, scale 0 to 100 (0 no effect, 100 complete control), read-out: Lambsquarters plant response rating
Method in brief: as §1

[3] = test system: giant foxtail (Setaria faberii); assay: Test B pre/postemergence; conditions: Setaria faberi; for pest or weed control at 125 g/ha: 125 g ai/ha; for pest or weed control at 62 g/ha: 62 g ai/ha
Method in brief: as §1

[4] = test system: wheat (Triticum aestivum); assay: Test B pre/postemergence; conditions: Triticum aestivum, scale 0 to 100 (0 no effect, 100 complete control); for plant injury at 62 g/ha: 62 g ai/ha; for plant injury at 125 g/ha: 125 g ai/ha
Method in brief: as §1

[5] = test system: Surinam grass (Brachiaria decumbens); assay: Test B pre/postemergence; conditions: Urochloa decumbens; for pest or weed control at 125 g/ha: 125 g ai/ha; for pest or weed control at 62 g/ha: 62 g ai/ha
Method in brief: as §1

[6] = test system: barnyardgrass (Echinochloa crus-galli); assay: Test B pre/postemergence; conditions: Echinochloa crus-galli, post-emergence, Postemergence, scale 0 to 100 (0 no effect, 100 complete control), read-out: Barnyardgrass plant response rating
Method in brief: as §1

[7] = test system: velvetleaf (Abutilon theophrasti); assay: Test B pre/postemergence; conditions: Abutilon theophrasti; for pest or weed control at 62 g/ha: 62 g ai/ha; for pest or weed control at 125 g/ha: 125 g ai/ha
Method in brief: as §1

[8] = test system: morningglory (Ipomoea coccinea); assay: Test B pre/postemergence; conditions: Ipomoea; for pest or weed control at 62 g/ha: 62 g ai/ha; for pest or weed control at 125 g/ha: 125 g ai/ha
Method in brief: as §1

[9] = test system: cocklebur (Xanthium strumarium); assay: Test B pre/postemergence; conditions: Xanthium strumarium; for pest or weed control at 62 g/ha: 62 g ai/ha; for pest or weed control at 125 g/ha: 125 g ai/ha
Method in brief: as §1

[10] = test system: crabgrass (Digitaria sanguinalis); assay: Test B pre/postemergence; conditions: Digitaria sanguinalis; for pest or weed control at 62 g/ha: 62 g ai/ha; for pest or weed control at 125 g/ha: 125 g ai/ha
Method in brief: as §1

[11] = test system: blackgrass (Alopecurus myosuroides); assay: Test B postemergence; conditions: Alopecurus myosuroides, post-emergence, 62 g ai/ha, scale 0 to 100 (0 no effect, 100 complete control), read-out: Blackgrass plant response rating
Method in brief: as §1

wild oat (Avena fatua) = assay: Test B postemergence; conditions: Avena fatua, post-emergence, scale 0 to 100 (0 no effect, 100 complete control), read-out: Oat, Wild plant response rating
Method in brief: as §1

[12] = test system: umbrella sedge (Cyperus difformis); assay: Test B flooded paddy test; conditions: Cyperus difformis, Flood, scale 0 to 100, read-out: Plant response rating, Sedge, Umbrella
Method in brief: (§2)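 Visual injury scoring (0 = no effect, 100 = complete control) versus controls made 13 to 15 days after treatment in the greenhouse. Test species were grown in flooded paddy to the 2-leaf stage: rice, barnyardgrass, umbrella sedge, duck salad.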

rice (Oryza sativa) = assay: Test B flooded paddy test; conditions: Oryza sativa, Flood, scale 0 to 100, read-out: Plant response rating, Rice
Method in brief: as §2

[13] = test system: barnyardgrass (Echinochloa crus-galli); assay: Test B flooded paddy test; conditions: Echinochloa crus-galli, Flood, scale 0 to 100, read-out: Plant response rating, Barnyardgrass
Method in brief: as §2

[14] = test system: duck salad (Heteranthera limosa); assay: Test B flooded paddy test; conditions: Heteranthera limosa, Flood, scale 0 to 100, read-out: Plant response rating, Ducksalad
Method in brief: as §2

[15] = post-emergence, Postemergence, scale 0 to 100 (0 no effect, 100 complete control), read-out: Foxtail, Giant plant response rating
[16] = post-emergence, Postemergence, read-out: Wheat plant response rating
[17] = pre-emergence, Preemergence, read-out: Plant response rating, Wheat
[18] = post-emergence, Postemergence, scale 0 to 100 (0 no effect, 100 complete control), read-out: Surinam Grass plant response rating
[19] = post-emergence, Postemergence, scale 0 to 100 (0 no effect, 100 complete control), read-out: Velvetleaf plant response rating
[20] = post-emergence, Postemergence, scale 0 to 100 (0 no effect, 100 complete control), read-out: Morningglory plant response rating
[21] = post-emergence, Postemergence, scale 0 to 100 (0 no effect, 100 complete control), read-out: Cocklebur plant response rating
[22] = post-emergence, Postemergence, scale 0 to 100 (0 no effect, 100 complete control), read-out: Crabgrass plant response rating

Nc1nc(-c2ccc(Br)cc2)nc(C(=O)O)c1Cl [Compound 95, 6-amino-2-(4-bromophenyl)-5-chloro-4-pyrimidinecarboxylic acid]
90%: plant injury at 125 g/ha (corn (Zea mays); post-emergence, Postemergence, 125 g ai/ha, scale 0 to 100 (0 no effect, 100 complete control), read-out: Corn plant response rating) | pest or weed control at 125 g/ha ([3]; pre-emergence, Preemergence, scale 0 to 100 (0 no effect, 100 complete control), read-out: Plant response rating, Foxtail, Giant) | pest or weed control at 125 g/ha [5, 18] | pest or weed control at 62 g/ha ([6]; 62 g ai/ha) | pest or weed control at 125 g/ha ([6]; 125 g ai/ha) | pest or weed control at 62 g/ha [8, 20] | pest or weed control at 62 g/ha [9, 21] | pest or weed control at 125 g/ha [9, 21] | pest or weed control at 62 g/ha ([9]; pre-emergence, Preemergence, scale 0 to 100, 0 no effect, 100 complete control, read-out: Plant response rating, Cocklebur) | pest or weed control at 125 g/ha ([12]; 125 g ai/ha) | pest or weed control at 500 g/ha ([12]; 500 g ai/ha) | pest or weed control at 125 g/ha ([14]; 125 g ai/ha)
40%: Corn plant response rating (crop injury, 0 = no effect, 100 = complete kill) at 62 g/ha (corn (Zea mays); pre-emergence, Preemergence, 62 g ai/ha, scale 0 to 100, 0 no effect, 100 complete control) | plant injury at 62 g/ha [4, 16] | plant injury at 500 g/ha (rice (Oryza sativa); 500 g ai/ha)
50%: pest or weed control at 62 g/ha ([3]; pre-emergence, Preemergence, scale 0 to 100, 0 no effect, 100 complete control, read-out: Plant response rating, Foxtail, Giant) | plant injury at 125 g/ha [4, 16] | pest or weed control at 62 g/ha ([5]; pre-emergence, Preemergence, scale 0 to 100, 0 no effect, 100 complete control, read-out: Plant response rating, Surinam Grass)
60%: pest or weed control at 125 g/ha ([8]; pre-emergence, Preemergence, scale 0 to 100 (0 no effect, 100 complete control), read-out: Plant response rating, Morningglory) | pest or weed control at 62 g/ha [11] | pest or weed control at 125 g/ha (wild oat (Avena fatua); 125 g ai/ha)
70%: plant injury at 62 g/ha [4, 17]
100%: pest or weed control at 62 g/ha ([1]; 62 g ai/ha) | pest or weed control at 125 g/ha ([1]; 125 g ai/ha) | pest or weed control at 62 g/ha ([2]; 62 g ai/ha) | pest or weed control at 125 g/ha ([2]; 125 g ai/ha) | pest or weed control at 125 g/ha ([5]; pre-emergence, Preemergence, scale 0 to 100 (0 no effect, 100 complete control), read-out: Plant response rating, Surinam Grass) | pest or weed control at 62 g/ha [7, 19] | pest or weed control at 125 g/ha [7, 19] | pest or weed control at 125 g/ha ([7]; pre-emergence, Preemergence, scale 0 to 100 (0 no effect, 100 complete control), read-out: Plant response rating, Velvetleaf) | pest or weed control at 125 g/ha [8, 20] | pest or weed control at 125 g/ha ([9]; pre-emergence, Preemergence, scale 0 to 100 (0 no effect, 100 complete control), read-out: Plant response rating, Cocklebur) | pest or weed control at 125 g/ha ([10]; pre-emergence, Preemergence, scale 0 to 100 (0 no effect, 100 complete control), read-out: Plant response rating, Crabgrass) | pest or weed control at 500 g/ha ([14]; 500 g ai/ha)
30%: pest or weed control at 62 g/ha ([8]; pre-emergence, Preemergence, scale 0 to 100, 0 no effect, 100 complete control, read-out: Plant response rating, Morningglory) | pest or weed control at 62 g/ha (wild oat (Avena fatua); 62 g ai/ha) | pest or weed control at 500 g/ha ([13]; 500 g ai/ha)
0%: plant injury at 125 g/ha (rice (Oryza sativa); 125 g ai/ha) | pest or weed control at 125 g/ha ([13]; 125 g ai/ha)
80%: plant injury at 62 g/ha (corn (Zea mays); post-emergence, Postemergence, 62 g ai/ha, scale 0 to 100 (0 no effect, 100 complete control), read-out: Corn plant response rating) | Corn plant response rating (crop injury, 0 = no effect, 100 = complete kill) at 125 g/ha (corn (Zea mays); pre-emergence, Preemergence, 125 g ai/ha, scale 0 to 100 (0 no effect, 100 complete control)) | pest or weed control at 125 g/ha [3, 15] | pest or weed control at 62 g/ha [3, 15] | plant injury at 125 g/ha [4, 17] | pest or weed control at 62 g/ha [5, 18] | pest or weed control at 62 g/ha ([7]; pre-emergence, Preemergence, scale 0 to 100, 0 no effect, 100 complete control, read-out: Plant response rating, Velvetleaf) | pest or weed control at 62 g/ha [10, 22] | pest or weed control at 125 g/ha [10, 22] | pest or weed control at 62 g/ha ([10]; pre-emergence, Preemergence, scale 0 to 100, 0 no effect, 100 complete control, read-out: Plant response rating, Crabgrass)
